According to patent US9845420B2, “Latent heat cold storage material” (Panasonic Intellectual Property Management Co., Ltd., priority 2015, dated 2017):

Assay: Saturated concentration (solubility) of crystalline powder compound in inorganic salt aqueous solution
Format: physicochemical
Details: for Saturated concentration: 25° C., aqueous solution containing only 15 wt % of sodium chloride and 10 wt % of ammonium chloride; for Saturating concentration: 25 degrees Celsius
Experimental: The latent heat cold storage material of the present disclosure contains a crystalline powder as a supercooling inhibitor. The crystalline powder is formed of a compound having low solubility in an aqueous solution of an inorganic salt (hereinafter, also referred to as a low-solubility compound).
In the present disclosure, the “solubility” refers to a limit of an amount at which a solute is dissolved in a certain amount of a solvent. The solubility is represented by a mass (g) of the solute which is dissolved in 100 g of the solvent at a certain temperature. […] In the present disclosure, the “saturated concentration” refers to a concentration of an aqueous solution in which a solute is dissolved up to the solubility. When the limit of an amount at which a solute is dissolved in 100 g of a solvent is 20 g, the solubility is 20 g, and the saturated concentration of the solute is 16.7 wt %.

SMILES | Saturated concentration | Saturating concentration (aqueous solution containing 10 wt % of potassium chloride and 10 wt % of ammonium chloride) [wt %] | Saturating concentration (aqueous solution containing 12.5 wt % of potassium chloride and 12.5 wt % of ammonium chloride) | Solubility in the inorganic salt aqueous solution (normal temperature, inorganic salt concentration 10 to 30 wt %) [wt %]
CCCCNC(=O)NCCCC [1,3-dibutylurea] | less than 0.08 wt % |  |  | 
O=C(NC1CCCCC1)NC1CCCCC1 [1,3-dicyclohexylurea] | less than 7.0 wt % |  |  | 
CCNC(=O)NCC [1,3-diethylurea] | 3.0 wt % | 7.0 | less than 7.0 wt % | ≤ 10
